Like-named read-outs stand apart in the source and are kept apart here.
Columns and labels:
CB1 receptor [1] = target: T1, CB1 receptor (Homo sapiens, UniProt P21554); experiment: β-arrestin recruitment in CNR1 PathHunter cell line, allosteric modulation of CP55,940 response; type: cell-based; settings: for Emax: read-out: β-arrestin activity EMax (%)
Method: (§1) For allosteric determination, cells were preincubated with compound followed by agonist challenge at the EC20 concentration of the agonist. 5 μL of 4× compound was added to cells and incubated at 37° C. for 30 minutes. 5 μL of 4× EC20 agonist was added to cells and incubated at 37° C. for 30 minutes.
(§2) Data Analysis: Dose curves were plotted using GraphPad Prism or Activity Base. The percentage activity is calculated using the following formula: % Activity=100%×(1−(mean RLU of test sample−mean RLU of MAX control)/(mean RLU of vehicle control [EC20 for PAM]−mean RLU of MAXcontrol).
(§3) Agonist (CP55,940) dose curves were performed for the CNR1 PathHunter and cAMP Hunter cell lines. […] The cAMP assay was performed in the presence of 20 μM forskolin (EC80).
(§4) In Vitro Evaluation: The in vitro evaluation of the covalent allosteric modulators was performed using as described previously.

CB1 receptor [2] = target: T1, CB1 receptor; experiment: DiscoveRx HitHunter cAMP XS+ assay in cAMP Hunter cell line, allosteric modulation of CP55,940 response; type: cell-based; settings: for Emax: read-out: cAMP activity ECMax (%)
Method: Once it was established that the cells were healthy and growing normally, cells were passaged from flasks using cell dissociation reagent buffer and seeded into white walled clear bottom 384-well microplates for compound profiling. For profiling, cells were seeded at a density of 10000 cells per well in a total volume of 20 μL and were allowed to adhere and recover overnight prior to compound addition. Cells were treated the following day using the protocols shown below. cAMP modulation was determined using the DiscoveRx HitHunter cAMP XS+ assay.
Media was aspirated from cells and replaced with 10 μL 1:1 HBSS/Hepes: cAMP XS+ Ab reagent. Agonist (CP55,940) dose curves were performed to determine the EC20 value for the testing with the compounds of the present technology. 5 μL of 4× agonist was added to each well with an equal concentration of vehicle present. EC20 agonist concentration was determined directly from agonist dose curve.
as §1
Signal Detection: After appropriate compound incubation, assay signal was generated through incubation with 20 μL cAMP XS+ED/CL lysis cocktail for one hour followed by incubation with 20 μL cAMP XS+EA reagent for three hours at room temperature. Microplates were read following signal generation with a PerkinElmer Envision™ instrument for chemiluminescent signal detection.
as §2, §3, §4

[3] = Table 2, covalent allosteric modulators, read-out: β-arrestin activity EC50 (nm)
[4] = Table 2, covalent allosteric modulators
[5] = Table 2, covalent allosteric modulators, read-out: cAMP activity EC50 (nm)
[6] = Table 1, CP55,940 as agonist, read-out: β-arrestin EC50
[7] = Table 1, preincubation with compound, then CP55,940 challenge, 20 μM forskolin
[8] = Table 1, preincubation with compound, then CP55,940 challenge, 20 μM forskolin, read-out: cAMP EC50

T1 sequence (P21554 whole entry): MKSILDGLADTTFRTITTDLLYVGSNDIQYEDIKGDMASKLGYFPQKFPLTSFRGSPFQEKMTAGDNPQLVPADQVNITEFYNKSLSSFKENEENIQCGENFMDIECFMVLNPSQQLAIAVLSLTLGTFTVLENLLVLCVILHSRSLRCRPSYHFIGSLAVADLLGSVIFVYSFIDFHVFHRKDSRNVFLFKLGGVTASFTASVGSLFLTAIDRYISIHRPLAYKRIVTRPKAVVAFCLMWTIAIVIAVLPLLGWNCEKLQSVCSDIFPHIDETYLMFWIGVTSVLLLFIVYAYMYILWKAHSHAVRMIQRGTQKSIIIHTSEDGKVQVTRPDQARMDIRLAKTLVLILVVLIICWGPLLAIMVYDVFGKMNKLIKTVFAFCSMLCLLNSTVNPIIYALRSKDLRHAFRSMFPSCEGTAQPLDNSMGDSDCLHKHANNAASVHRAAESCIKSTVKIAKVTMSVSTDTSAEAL

SMILES	β-arrestin % inhibition (CB1 receptor [1]; Table 1, CP55,940 as agonist)	EC50 (CB1 receptor [1]; [6])	cAMP % inhibition (CB1 receptor [2]; [7])	EC50 (CB1 receptor [2]; [8])	further results
[N-]=[N+]=Nc1ccc(NC(=O)Nc2cccc(-c3cccc(N4CCCC4)n3)c2)cc1 [GAT331]	–	–	–	–	EC50 (CB1 receptor [1]; [3]): 106 nM; Emax (CB1 receptor [1]; [4]): 138%; EC50 (CB1 receptor [2]; [5]): 297 nM; Emax (CB1 receptor [2]; [4]): 128%
O=C(Nc1ccc(Cl)cc1)Nc1cccc(-c2cccc(N3CCOCC3)n2)c1 [Compound 67a, 1-(4-Chlorophenyl)-3-(3-(6-morpholinopyridin-2-yl)phenyl)urea]	111%	124 nM	88%	564 nM	–
COc1ccccc1NC(=O)Nc1cccc(-c2cccc(N3CCCC3)n2)c1 [Compound 10j, 1-(2-Methoxyphenyl)-3-(3-(6-(pyrrolidin-1-yl)pyridin-2-yl)phenyl)urea]	93%	1230 nM	0%	> 10000 nM	–
O=C(Nc1ccc(I)cc1)Nc1cccc(-c2cccc(N3CCCC3)n2)c1 [Compound 10b, 1-(4-Iodophenyl)-3-(3-(6-(pyrrolidin-1-yl)pyridin-2-yl)phenyl)urea]	133%	27 nM	126%	223 nM	–
O=C(Nc1ccc(Cl)cc1)Nc1cccc(-c2ccnc(N3CCCC3)c2)c1 [Compound 57, 1-(4-Chlorophenyl)-3-(3-(2-(pyrrolidin-1-yl)pyridin-4-yl)phenyl)urea]	111%	77 nM	50%	9790 nM	–
Clc1ccc(Nc2nnc(-c3cccc(-c4cccc(N5CCCC5)n4)c3)o2)cc1 [Compound 42, N-(4-Chlorophenyl)-5-(3-(6-(pyrrolidin-1-yl)pyridin-2-yl)phenyl)-1,3,4-oxadiazol-2-amine]	31%	5850 nM	43%	> 10000 nM	–
O=C(Nc1cccc(-c2cccc(N3CCCC3)n2)c1)Nc1ccccc1Cl [Compound 10d, 1-(2-Chlorophenyl)-3-(3-(6-(pyrrolidin-1-yl)pyridin-2-yl)phenyl)urea]	105%	2170 nM	39%	> 10000 nM	–
O=C(Nc1cccc(-c2cccc(N3CCCC3)n2)c1)Nc1ccc(Cl)cc1CCCCOC1CCCCO1 (centres unmarked) [Compound 23a, 1-(4-Chloro-2-(4-((tetrahydro-2H-pyran-2-yl)oxy)butyl)phenyl)-3-(3-(6-(pyrrolidin-1-yl)pyridin-2-yl)phenyl)urea]	117%	1090 nM	41%	820 nM	–
CN(C(=O)Nc1cccc(-c2cccc(N3CCCC3)n2)c1)c1ccc(Cl)cc1 [Compound 13a, 1-(4-Chlorophenyl)-1-methyl-3-(3-(6-(pyrrolidin-1-yl)pyridin-2-yl)phenyl)urea]	99%	1020 nM	17%	1640 nM	–
O=C(Nc1cccc(-c2cccc(N3CCCC3)n2)c1)Nc1ccc(Cl)cc1C#CCCO [Compound 22a, 1-(4-Chloro-2-(4-hydroxybut-1-yn-1-yl)phenyl)-3-(3-(6-(pyrrolidin-1-yl)pyridin-2-yl)phenyl)urea]	83%	4890 nM	49%	6490 nM	–
O=C(Nc1cccc(-c2cccc(N3CCCC3)n2)c1)Nc1ccc2ccccc2c1 [Compound 10x, 1-(Naphthalen-2-yl)-3-(3-(6-(pyrrolidin-1-yl)pyridin-2-yl)phenyl)urea]	119%	1910 nM	68%	1830 nM	–
O=C(Nc1cccc(-c2cccc(N3CCCC3)n2)c1)Nc1cccc2ccccc12 [Compound 10w, 1-(Naphthalen-1-yl)-3-(3-(6-(pyrrolidin-1-yl)pyridin-2-yl)phenyl)urea]	109%	1270 nM	69%	1260 ± 125 nM	–
CCc1c(C(=O)NCCc2ccc(N3CCCCC3)cc2)[nH]c2ccc(N=C=S)cc12 [GAT100]	–	–	–	–	EC50 (CB1 receptor [1]; [3]): 9.06 nM; Emax (CB1 receptor [1]): 106%; EC50 (CB1 receptor [2]; [5]): 186 nM; Emax (CB1 receptor [2]): 89.4%
CCc1ccccc1NC(=O)Nc1cccc(-c2cccc(N3CCCC3)n2)c1 [Compound 10r, 1-(2-Ethylphenyl)-3-(3-(6-(pyrrolidin-1-yl)pyridin-2-yl)phenyl)urea]	76%	3320 nM	42%	1190 ± 120 nM	–
CC(C)c1ccccc1NC(=O)Nc1cccc(-c2cccc(N3CCCC3)n2)c1 [Compound 10v, 1-(2-Isopropylphenyl)-3-(3-(6-(pyrrolidin-1-yl)pyridin-2-yl)phenyl)urea]	–	–	–	–	β-arrestin % inhibition (CB1 receptor [1]): 66%; EC50 (CB1 receptor [1]; β-arrestin EC50 nM): 4200 nM; cAMP % inhibition (CB1 receptor [2]): 70%; EC50 (CB1 receptor [2]; cAMP EC50 nM): 4810 nM
COC(=O)c1ccccc1NC(=O)Nc1cccc(-c2cccc(N3CCCC3)n2)c1 [Compound 15, Methyl 2-(3-(3-(6-(pyrrolidin-1-yl)pyridin-2-yl)phenyl)ureido)benzoate]	24%	8520 nM	0.6%	> 10000 nM	–
O=C(Nc1cccc(-c2cccc(N3CCCC3)n2)c1)Nc1ccc(Cl)c(I)c1 [Compound 19b, 1-(4-Chloro-3-iodophenyl)-3-(3-(6-(pyrrolidin-1-yl)pyridin-2-yl)phenyl)urea]	120%	126 nM	30%	> 10000 nM	–
O=C(Nc1ccc(Cl)cc1)Nc1ccccc1-c1cccc(N2CCCC2)n1 [Compound 55, 1-(4-Chlorophenyl)-3-(2-(6-(pyrrolidin-1-yl)pyridin-2-yl)phenyl)urea]	61%	5860 nM	110%	3400 nM	–
CN(C(=O)N(C)c1cccc(-c2cccc(N3CCCC3)n2)c1)c1ccc(Cl)cc1 [Compound 28, 1-(4-Chlorophenyl)-1,3-dimethyl-3-(3-(6-(pyrrolidin-1-yl)pyridin-2-yl)phenyl)urea]	62%	2330 nM	39%	1670 nM	–
O=C(Nc1cccc(-c2cccc(N3CCCC3)n2)c1)Nc1ccccc1Oc1ccccc1 [Compound 10m, 1-(2-Phenoxyphenyl)-3-(3-(6-(pyrrolidin-1-yl)pyridin-2-yl)phenyl)urea]	80%	795 nM	18%	> 10000 nM	–
O=C(Nc1ccc(Cl)cc1)Oc1cccc(-c2cccc(N3CCCC3)n2)c1 [Compound 31, 3-(6-(Pyrrolidin-1-yl)pyridin-2-yl)phenyl (4-chlorophenyl)carbamate]	58%	8660 nM	8.8%	> 10000 nM	–
O=C(Nc1ccc(Cl)cc1)Nc1ccc(-c2cccc(N3CCCC3)n2)cc1 [Compound 51, 1-(4-Chlorophenyl)-3-(4-(6-(pyrrolidin-1-yl)pyridin-2-yl)phenyl)urea]	109%	206 nM	11%	> 10000 nM	–
O=C(Nc1cccc(-c2cccc(N3CCCC3)n2)c1)N1CCc2ccccc2C1 [Compound 10y, N-(3-(6-(Pyrrolidin-1-yl)pyridin-2-yl)phenyl)-3,4-dihydroisoquinoline-2(1H)-carboxamide]	50%	5340 nM	2.55%	–	EC50 (CB1 receptor [2]; read-out: cAMP EC50): > 10000 nM

Reference: patent US9926275B2 (priority 2013, dated 2018)
